According to patent publication US20030088057A1, “PEPTIDE SUBSTRATES PHOSPHORYLATED BY P21-ACTIVAGED PROTEIN KINASE STATEMENT REGARDING FEDERALLY SPONSORED REASEARCH OR DEVELOPMENT” (priority 1998, published 2003):
Like-named read-outs stand apart in the source and are kept apart here. No end group written: not given here.

Assays:
γ-PAK [1] = test: Kinetic parameters (Km, Vmax) for phosphorylation of synthetic peptides by γ-PAK; type: biochemical, rabbit
Procedure: (§1) Assays with peptides (I mM) were carried out with γ-PAK (1.6-5.6 units) in 25 μL reaction mixtures incubated for 30 min at 30° C. under conditions described above, except that 0.4 mg/mL of bovine serum albumin was added and the specific activity of ATP was 300-2000 cpm/pmol. Reactions were terminated with 5 μL of 100 mM ATP, and the amount of ^32p incorporated was quantitated by precipitation of 20 μL aliquots on P81 phosphocellulose paper with 75 mM H3PO4 as described previously [Bensen, E. S., et al., Biochim. Biophys. Acta, 1292:249-258 (1996)]. Peptides containing only one basic amino acid were analyzed by thin-layer electrophoresis on cellulose sheets for 2 h at 600 V with pyridine/acetic acid/water (10:100:890), pH 3.5, as solvent, as described previously [Bensen, E. S., et al., supra]. Activation of γ-PAK by autophosphorylation in the presence of Cdc42(GTPγS) was performed as previously described [Jakobi, R., et al., supra]. γ-PAK was also activated by limited digestion with trypsin as described previously [Rooney, R. D., et al., (1996), supra].

γ-PAK [2] = test: Rates of phosphorylation of synthetic peptides by γ-PAK; type: biochemical, rabbit; settings: for 32P incorporated, %: AKRASAA taken as 100%; for substrate for γ-PAK (in words): synthetic peptides; for rate of phosphorylation compared to AKRASAA: relative to AKRASAA; for rate of phosphorylation compared to ARRASVA: other studies, ARRASVA = 100%
Text: (§2) A. Materials. γ-PAK was purified from rabbit reticulocytes to apparent homogeneity by chromatography on DEAE-cellulose, SP-Sepharose, protamine agarose, and FPLC on Mono S and Mono Q. Histone I (type IIIS), mixed histone (type IIAS), trypsin (L-1-tosylamido-2-phenylethyl chloromethyl ketone treated), soybean trypsin inhibitor, bovine serum albumin (fatty acid free), and myelin basic protein were purchased from Sigma. Purified histones 2B and 4 were purchased from Boehringer-Mannheim. Myosin light chain from rabbit skeletal muscle was a gift from Dr. James Stull, University of Texas Southwestern Medical Center, Dallas, Tex.; rat prolactin was provided by Dr. Ameae Walker, University of California, Riverside, Calif.; and the purified catalytic subunit of cAMP-dependent protein kinase from bovine heart was a gift from Dr. William H. Fletcher, J. L. Pettis Memorial V. A. Hospital, Loma Linda, Calif. Protein kinase C was purified from bovine brain according to the procedure of Walton et al. [Walton, G. M., et al., Anal Biochem., 161:425-437 (1987)], with modifications [Venema, R. C., et al., J. Biol. Chem., 266:5298-5302 (1991)]. The clone for GST-Cdc42 was generously provided by Dr. Channing Der, University of North Carolina, Chapel Hill, N.C. Cellulose thin-layer chromatography sheets were from Kodak.
D. Phosphorylation Assays. Phosphorylation of protein substrates was carried out in 35 μL reaction mixtures containing 20 mM Tris-HCl, pH 7.4, 10 mM MgCl2, 30 mM 2-mercaptoethanol, 0.2 mM ATP (specific activity =1000 cpm/pmol), 2 μg of protein substrate, and 20 units of active γ-PAK (an enzyme unit is defined as the amount of enzyme that incorporates 1 pmol of phosphate into histone IIAS/ min at 30°. Under these conditions, phosphate incorporation was linear and initial rates of phosphorylation were measured. After incubation at 30° C. for 15 min, reactions were terminated by the addition of 5 μL of 100 mM nonlabeled ATP and sample buffer for gel electrophoresis [Hathaway, G. M., et al., Methods Enzymol., 60:495-511 (1979)]. Reaction mixtures were subjected to SDS-PAGE on 15% polyacrylamide gels followed by autoradiography. Phosphorylation was quantified by excising the protein band and counting the incorporated ^32P in a liquid scintillation counter. The specific activity of γ-PAK was 400 pmol min^−1 μg^−1 as reported previously using 0.2 mM ATP and 1 mg/mL mixed histone as substrate [Rooney, R. D., et al., (1996), supra].
as §1
Target sequence in this assay (Q29502 249-500 limits assumed): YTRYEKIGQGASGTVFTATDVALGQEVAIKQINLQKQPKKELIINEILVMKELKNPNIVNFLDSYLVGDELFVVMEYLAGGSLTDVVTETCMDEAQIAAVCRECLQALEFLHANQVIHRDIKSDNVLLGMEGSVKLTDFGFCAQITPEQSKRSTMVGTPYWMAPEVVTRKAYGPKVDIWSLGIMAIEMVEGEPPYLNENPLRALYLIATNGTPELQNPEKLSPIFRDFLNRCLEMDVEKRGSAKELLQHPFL

PKC = test: Rates of phosphorylation of synthetic peptides by PKC; type: biochemical, bovine; settings: for 32P incorporated: PKC (3.4 units), with Ca2+ and phospholipids, 0.14 mM ATP; for 32P incorporated, %: PKC, AKRASAA taken as 100%
Text: as §2
Reactions with PKA (10.5 units) were carried out under the same conditions as with γ-PAK except that 0.14 mM ATP was used. Reactions with PKC (3.4 units) were performed as with PKA, with the addition of 0.4 mM CaCl2, phosphatidylinositol (15 μg/mL), phosphatidylserine (15 μg/ mL), and 1,2-diolein (3 μg/mL), as described [Tuazon, P. T., et al., (1989), supra]. A unit of PKA or PKC is defined as the amount of enzyme that incorporates 1 pmol of phosphate/min at 30° C. into histone IIAS or histone 1, respectively.
PKA and PKC are known to require basic amino acids on the N-terminal side of the phosphorylatable serine/ threonine. To distinguish their substrate specificities from that of γ-PAK, the relative rates of phosphorylation were determined with the synthetic peptide substrates using the conditions for γ-PAK, with the addition of Ca^2+ and phospholipids for PKC. The rates shown in Table 5 are calculated with equivalent units of enzyme; the rate of phosphorylation of the peptide AKRASAA (SEQ ID NO:6) is taken as 100% for all three enzymes. As would be expected, PKA preferentially phosphorylated the peptides that contained RR or RK at the −3 and −2 positions and with […] residues or proline at the −4 and −1 positions inhibitory. PKC recognized SKR>RKS>KKS. The most notable difference between γ-PAK and PKA or PKC is the effect of acidic residues on the susceptibility of the peptide to be phosphorylated. An acidic residue in the −1 or −4 position was beneficial for γ-PAK but was detrimental for both PKA and PKC (Table 5). […] In addition, γ-PAK could not tolerate an arginine in the −3 position when lysine was in the −2 position.

[3] = Cdc42(GTPγS)-activated γ-PAK, peptide 1 mM, KKRKSAA = 100
[4] = proteolytically (trypsin) activated γ-PAK, peptide 1 mM, compared to KKRKSAA = 100
[5] = proteolytically activated γ-PAK (5.6 units), peptide 1 mM, 30 min at 30° C.
[6] = γ-PAK, calculated with equivalent units of enzyme
[7] = Table 2, influence of basic amino acids, γ-PAK 1.6 units, ATP 0.2 mM
[8] = Table 2, influence of basic amino acids, γ-PAK 1.6 units, ATP 0.2 mM, read-out: Km
[9] = Table 4, influence of proline and glycine
[10] = Table 4, influence of proline and glycine, read-out: Km

Row | Compound | rel rate (%) (γ-PAK [2]; [3]) | rel rate (%) (γ-PAK [2]; [4]) | 32P incorporated (γ-PAK [2]; [5]) | substrate for γ-PAK (in words) (γ-PAK [2]) | Km (γ-PAK [1]; [8]) | further results
1 | Nc1ncnc2c1ncn2[C@@H]1O[C@H](COP(=O)(O)OP(=O)(O)OP(=O)(O)O)[C@@H](O)[C@H]1O [ATP, reference compound] |  |  |  |  |  | Km (γ-PAK [1]; at concentrations of 1-3 mM peptide, read-out: Km for ATP): 65 to 80 µM
2 | AAAASKR (AAAASKR-NH2) [synthetic peptide with an amide C-terminal group] | 0% | 0% | 0 pmol/min/µg |  |  | 32P incorporated, % (γ-PAK [2]; γ-PAK): 0%; 32P incorporated (γ-PAK [2]; [6]): 0 pmol/unit; 32P incorporated (PKC): 13.3 pmol/unit; 32P incorporated, % (PKC): 403%
3 | AAKKSAA (AAKKSAA-NH2) [synthetic peptide with an amide C-terminal group] | 0% | 0% | 0 pmol/min/µg | poor substrates |  | 
4 | AAKRSAA (AAKRSAA-NH2) [synthetic peptide with an amide C-terminal group] | 0% | 0% | 0 pmol/min/µg | poor substrates |  | 
5 | AARASAA (AARASAA-NH2) [synthetic peptide with an amide C-terminal group] | 56% | 56% | 169 pmol/min/µg | reacted to a small but significant extent | 1880 µM | rate of phosphorylation compared to AKRASAA (γ-PAK [2]; γ-PAK): 40%; Vmax (γ-PAK [1]; [7]): 2.27 pmol/min
6 | AKRASGA (AKRASGA-NH2) [synthetic peptide with an amide C-terminal group] |  | 107% | 324 pmol/min/µg |  |  | increase of Km compared to AKRASAA (γ-PAK [1]): 4 fold; increase of Vmax compared to AKRASAA (γ-PAK [1]): 3 fold; overall rate of phosphorylation (Vmax/Km) compared to AKRASAA (γ-PAK [1]): slight overall decrease; Vmax (γ-PAK [1]; [9]): 3.49 pmol/min; Km (γ-PAK [1]; [10]): 2090 µM
7 | AKRASPA (AKRASPA-NH2) [synthetic peptide with an amide C-terminal group] | 3% | 0% | 0 pmol/min/µg | virtually abolished phosphorylation |  | Km (γ-PAK [1]; [10]): > 5000 µM
8 | AKRGSAA (AKRGSAA-NH2) [synthetic peptide with an amide C-terminal group] |  | 126% | 381 pmol/min/µg |  |  | increase of Km compared to AKRASAA (γ-PAK [1]): 7 fold; increase of Vmax compared to AKRASAA (γ-PAK [1]): 6 fold; overall rate of phosphorylation (Vmax/Km) compared to AKRASAA (γ-PAK [1]): slight overall decrease; Vmax (γ-PAK [1]; [9]): 6.44 pmol/min; Km (γ-PAK [1]; [10]): 3520 µM
9 | AKRKSAA (AKRKSAA-NH2) [synthetic peptide with an amide C-terminal group] | 158% | 181% | 548 pmol/min/µg |  | 480 µM | Vmax (γ-PAK [1]; [7]): 2.34 pmol/min
10 | AKRPSAA (AKRPSAA-NH2) [synthetic peptide with an amide C-terminal group] | 11% | 6% | 16 pmol/min/µg | virtually abolished phosphorylation |  | 32P incorporated, % (γ-PAK [2]; γ-PAK): 5%; 32P incorporated (γ-PAK [2]; [6]): 1.2 pmol/unit; Km (γ-PAK [1]; [10]): > 5000 µM; 32P incorporated (PKC): 3.9 pmol/unit; 32P incorporated, % (PKC): 118%
11 | ARAASVA [synthetic peptide] |  |  |  | reacted to a small but significant extent |  | rate of phosphorylation compared to ARRASVA (γ-PAK [2]; γ-PAK): 40%; rate of phosphorylation compared to AKRASAA (γ-PAK [2]; γ-PAK): 40%
12 | ARKASAA (ARKASAA-NH2) [synthetic peptide with an amide C-terminal group] | 9% | 6% | 16 pmol/min/µg | poor substrates | > 5000 µM | 32P incorporated, % (γ-PAK [2]; γ-PAK): 3%; 32P incorporated (γ-PAK [2]; [6]): 0.9 pmol/unit; 32P incorporated (PKC): 5.7 pmol/unit; 32P incorporated, % (PKC): 173%
13 | ARRASAA (ARRASAA-NH2) [synthetic peptide with an amide C-terminal group] | 134% | 129% | 391 pmol/min/µg | as good a substrate as AKRASAA | 650 µM | 32P incorporated, % (γ-PAK [2]; γ-PAK): 93%; 32P incorporated (γ-PAK [2]; [6]): 25.0 pmol/unit; Vmax (γ-PAK [1]; [7]): 2.11 pmol/min; 32P incorporated (PKC): 18.8 pmol/unit; 32P incorporated, % (PKC): 570%
14 | ARRASVA [synthetic peptide] |  |  |  |  |  | rate of phosphorylation compared to ARRASVA (γ-PAK [2]; γ-PAK): 100%
15 | KKAASAA (KKAASAA-NH2) [synthetic peptide with an amide C-terminal group] | 3% | 0% | 0 pmol/min/µg | did not |  | 
16 | KKRASAA (KKRASAA-NH2) [synthetic peptide with an amide C-terminal group] | 181% | 193% | 586 pmol/min/µg |  | 370 µM | Vmax (γ-PAK [1]; [7]): 1.59 pmol/min
17 | KKRKSAA [model peptide patterned after the phosphorylation site of nucleocapsid protein NC] | 100% | 100% | 302 pmol/min/µg |  | 610 µM | 32P incorporated, % (γ-PAK [2]; γ-PAK): 72%; 32P incorporated (γ-PAK [2]; [6]): 19.2 pmol/unit; Vmax (γ-PAK [1]; [7]): 1.84 pmol/min; Vmax (γ-PAK [1]; text b67, b73): 302 pmol/min/µg; 32P incorporated (PKC): 11.1 pmol/unit; 32P incorporated, % (PKC): 370%
